Experimental data reported in patent publication US12617779B2, “Self degradation-type CDK9 inhibitor prodrug and liposome encapsulating same” (Sumitomo Pharma Co., Ltd., priority 2021, dated 2026).

Legend:
[1] = mice, 2.5 mg/kg administration; cited from earlier work
[2] = Evaluation of conversion rate to active form in human plasma (Experimental Example 3); assay type: in vitro ADME; details: human, 0.2 μmol/L
Summary of the method: (§1)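 LC-MS/MS (positive ESI) followed the parent and released Alvocidib during 37° C incubation of 0.2 μmol/L compound in human or BALB/c mouse plasma, sampled at 0/30/60 or 0/60/120 min. Remaining parent is expressed versus the 0-min peak; conversion versus a 0.2 μmol/L Alvocidib standard.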

[3] = Evaluation of conversion rate to active form in BALB/c mouse plasma (Experimental Example 3); assay type: in vitro ADME; details: BALB/c, mouse, 0.2 μmol/L
Summary of the method: as §1

[4] = Evaluation of conversion rate to active form in buffer solution (Experimental Example 1); assay type: physicochemical
Summary of the method: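 Conversion to Alvocidib and loss of parent were followed by HPLC over 3 h (samples at 0, 0.5, 1, 2, 3 h). Incubations used 25 umol/L compound at 37 °C across pH 5.0–7.4, in 50 mM citrate below pH 6.0 and 50 mM phosphate from pH 6.0 upward.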

[5] = Pharmacokinetic test, intravenous solution and liposome formulations in mice (Experimental Example 6); assay type: in vivo; details: female BALB/c mice
Description: This was used as a solution formulation.
This was used as a liposome formulation.
Hydrogenated soybean phosphatidylcholine (COATSOME NC-21E, manufactured by NOF CORPORATION, 3.238 g), cholesterol (manufactured by Sigma, 1.160 g) and 1,2-disteroyl-rac-glycero-3-methylpolyoxyethylen 2000 (SUNBRIGHT GS-020, manufactured by NOF CORPORATION, 0.983 g) were dissolved in tert-butyl alcohol (300 mL) warmed to 65° C. The solution was placed in an eggplant flask and frozen in a dry ice-acetone bath, and then the tert-butyl alcohol was removed by evaporation under reduced pressure to give a lipid mixture.
To the above lipid mixture was added to a 250 mM ammonium sulfate solution (100 mL), and the mixture was warmed to 65° C., and dispersed by a homogenizer (ULTRA-TURRAX, manufactured by IKA) to give a crude liposome dispersion. […] The solution was filtered through a 0.22 μm membrane filter to adjust the total lipid concentration to 75 mM (75 μmol/mL). […] The solution was adjusted to pH 5 to 6 with 1 mol/L aqueous sodium hydroxide solution, warmed in a 65° C. water bath for 3 minutes, and ice-cooled. The liposome outer solution was replaced with 10 mM tartrate buffer solution/10% sucrose solution (pH 4) using a dialysis cassette (Slide-A-Lyzer G2 Dialysis Cassettes 20K MWCO, manufactured by Thermo Scientific), followed by filtration through a 0.22 μm membrane filter to adjust the concentration.
The solution formulation or liposome formulation was instantly administered intravenously to 7-week-old female BALB/c mice, and the blood was collected over time from the jugular vein without anesthesia up to 24 hours after administration for the solution formulation administration group and up to 72 hours after administration for the liposome formulation administration group. […] The plasma sample was centrifuged, and the concentrations of the test compound and Alvocidib in the obtained supernatant were determined by LC-MS/MS.

SMILES: CN1CC[C@H](c2c(O)cc(O)c3c(=O)cc(-c4ccccc4Cl)oc23)[C@H](O)C1 [Alvocidib]
- AUC [1]: 3.4 µmol·min/L

SMILES: CCC(=O)O[C@@H]1CN(C)CC[C@@H]1c1c(O)cc(O)c2c(=O)cc(-c3ccccc3Cl)oc12 [Comparative Example 6]
- Production rate (%) of Alvocidib ([2]; 0 min): 5%
- Residual rate (%) of test compound ([2]; 0 min): 100%
- Production rate (%) of Alvocidib ([2]; 60 min): 12%
- Residual rate (%) of test compound ([2]; 60 min): 89%
- Production rate (%) of Alvocidib ([2]; 120 min): 15%
- Residual rate (%) of test compound ([2]; 120 min): 89%
- Production rate (%) of Alvocidib ([3]; 0 min): 6%
- Residual rate (%) of test compound ([3]; 0 min): 100%
- Production rate (%) of Alvocidib ([3]; 60 min): 48%
- Residual rate (%) of test compound ([3]; 60 min): 48%
- Production rate (%) of Alvocidib ([3]; 120 min): 66%
- Residual rate (%) of test compound ([3]; 120 min): 33%
- Production rate of Alvocidib ([4]; pH7.4, 0 hr): 4.3%
- Residual rate ([4]; pH7.4, 0 hr): 93.7%
- Conversion to Alvocidib at pH 7.4 ([4]; pH 7.4, 37° C., up to 3 hours): slowly converted to Alvocidib
- Production rate of Alvocidib ([4]; pH7.4, 0.5 hr): 4.4%
- Residual rate ([4]; pH7.4, 0.5 hr): 93.6%
- Production rate of Alvocidib ([4]; pH7.4, 1 hr): 4.5%
- Residual rate ([4]; pH7.4, 1 hr): 95.1%
- Production rate of Alvocidib ([4]; pH7.4, 2 hr): 4.7%
- Residual rate ([4]; pH7.4, 2 hr): 94.9%
- Blood retention of liposome formulation compared with the corresponding solution formulation [5]: did not show improved blood retention
